In patent US11400059B2, “Treatment of pain and/or pain related symptoms associated with dysmenorrhea” (ALYRA BIOTECH PTY LTD, priority 2017, dated 2022):
“Also recorded” adds a separate entry of the source.

Experiments:
hTLR9 = biological target: T1, hTLR9 (Homo sapiens, UniProt Q9NR96); assay: Human TLR/NLR agonist screening, NF-κB SEAP reporter in HEK293 cells; assay type: cell-based; settings: agonist mode, Control+ = CpG ODN 2006 1 μg/mL
T1 construct: expressed in transfected cells; host or cells: HEK293
T1 sequence (Q9NR96 26-1032): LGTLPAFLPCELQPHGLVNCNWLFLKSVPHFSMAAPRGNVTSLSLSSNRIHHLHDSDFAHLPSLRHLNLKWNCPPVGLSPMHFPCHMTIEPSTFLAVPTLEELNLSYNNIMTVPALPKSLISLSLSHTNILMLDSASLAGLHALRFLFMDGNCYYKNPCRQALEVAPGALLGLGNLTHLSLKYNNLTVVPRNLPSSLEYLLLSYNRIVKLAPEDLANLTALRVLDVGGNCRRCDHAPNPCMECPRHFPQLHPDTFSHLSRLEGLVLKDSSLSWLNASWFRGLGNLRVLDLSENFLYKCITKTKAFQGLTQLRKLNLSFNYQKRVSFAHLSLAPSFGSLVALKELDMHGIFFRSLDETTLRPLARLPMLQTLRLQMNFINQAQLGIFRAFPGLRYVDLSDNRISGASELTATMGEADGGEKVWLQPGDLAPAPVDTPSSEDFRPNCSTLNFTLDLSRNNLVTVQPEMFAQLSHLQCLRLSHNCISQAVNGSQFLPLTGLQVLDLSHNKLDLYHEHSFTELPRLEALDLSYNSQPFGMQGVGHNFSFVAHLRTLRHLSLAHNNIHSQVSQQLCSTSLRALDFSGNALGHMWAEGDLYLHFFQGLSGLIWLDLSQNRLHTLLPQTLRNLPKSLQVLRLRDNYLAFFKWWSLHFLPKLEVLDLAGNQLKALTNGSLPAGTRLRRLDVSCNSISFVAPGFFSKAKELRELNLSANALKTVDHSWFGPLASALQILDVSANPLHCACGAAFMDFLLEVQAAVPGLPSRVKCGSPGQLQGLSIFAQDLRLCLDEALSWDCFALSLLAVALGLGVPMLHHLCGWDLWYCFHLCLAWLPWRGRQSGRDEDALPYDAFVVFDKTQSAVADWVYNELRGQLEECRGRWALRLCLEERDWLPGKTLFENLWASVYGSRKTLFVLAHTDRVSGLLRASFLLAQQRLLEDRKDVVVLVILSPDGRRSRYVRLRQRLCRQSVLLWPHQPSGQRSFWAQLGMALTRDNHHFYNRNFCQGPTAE
Method: (§1) Toll-Like Receptor (TLR), NOD-Like Receptor (NLR) and C-Type Lectin Receptor (CLR) stimulation were tested by assessing NF-κB activation in HEK293 cells expressing a given TLR, NLR or CLR. The activity of the test articles was tested at one concentration and compared to control ligands. These steps were performed in triplicate.
hTLR9: CpG ODN 2006 at 1 μg/mL Antagonist: 500 ng/mL.
(§2) In a 96-well plate (200 μL total volume) containing the appropriate cells (50,000-75,000 cells/well), 20 μL of the test article or the positive control ligand was added to the wells. For the antagonist assay, the test article was incubated with the cells, at 37° C. with 5% CO2, for 30 minutes prior to the addition of the positive control ligand to the wells. The media added to the wells was designed for the detection of NF-κB induced SEAP expression. After a 16-24 hr incubation the optical density (OD) was read at 650 nm on a Molecular Devices SpectraMax 340PC absorbance detector.
(§3) The fold induction (ratio of average induced value to average non-induced value) results were as follows: […]

[1] = system: spinal glial cells in the dorsal horn of the spinal cord; assay: Spinal glial activation (astrocytes and microglia) after intrauterine LPS, overall statements; assay type: in vivo, mouse (Balb/C)
From the text: In the model, we investigated whether intrauterine LPS administration would cause an activation of the innate immune system in the uterus, replicating the inflammation often seen in dysmenorrhea, with possible association with pain. As inflammation is intrinsically linked with pain, we investigated whether activation of the innate immune system in the uterus would induce activation of spinal glial cells (central nervous system immune cells) in the dorsal horn of the spinal cord. Spinal glial cells include astrocytes and microglia. Activation of spinal glial cells was assessed using immunoflourescent staining with GFAP (astrocytes) or Iba1 (microglia). We then investigated if spinal glial activation is attenuated by the innate immune system blocking drugs amitriptyline and TAK-242.
(§4) Group 1 included twelve mice with 20 μl endotoxin-free saline introduced to the uterus on the first day of estrus and the subsequent day over 3 consecutive estrous cycles. Group 2 included twelve mice with LPS (100 μg/kg) instilled in the uterus on the first day of estrus and saline injected on the subsequent day over 3 consecutive estrous cycles. Group 3 included twelve mice with LPS (100 μg/kg) mixed with amitriptyline (20 μl of a 100 μM solution, equivalent to 28 μg/kg) instilled in the uterus on the first day of estrus, and amitriptyline alone instilled on the subsequent day over 3 consecutive estrous cycles. Group 4 included 14 mice with LPS (100 μg/kg) mixed with TAK-242 (20 μl of a 100 μM solution, equivalent to 36 μg/kg) instilled on the first day of estrus and TAK-242 alone instilled on the subsequent day over 3 consecutive estrous cycles.
Determination of spinal glial response was then assessed using immunofluorescence to confirm the validity of the experimental model.
Determination of the ability of TLR4 antagonists to block the activation of spinal astrocytes and microglia induced by intra-uterine instillation of LPS was assessed.
An assessment of glial activation was made using immunochemistry techniques including Ionized calcium binding adaptor molecule 1 (Iba1) expression and glial fibrillary-associated protein (GFAP) variability in the dorsal horn. Iba1 expression is a marker for microglial activation, and GFAP is a marker for astrocyte activation. The spinal cord levels chosen are consistent with the level of spinal afferent neurons associated with the pelvis, including the uterus in the mouse.

[2] = system: spinal astrocytes (GFAP) in the dorsal horn of the spinal cord; assay: Spinal astrocyte activation (GFAP immunofluorescence) after intrauterine LPS; assay type: in vivo, mouse (Balb/C); settings: 3 estrous cycles
Method: as §4
(§5) The investigation involved the instillation of 20 ul of an endotoxin-free 0.9% saline solution into the uterus of all animals on the first day of estrus and the subsequent day during 3 consecutive estrous cycles. Additional agents added to the saline were included according to the groups outlined below. Where LPS is administered, this was done on only 1 day per estrous cycle.
(§6) Where amitriptyline or TAK-242 was administered, this is on both the first day of estrus and the subsequent day.
(§7) The spinal cord was assessed using immunohistochemistry techniques across levels T10, T11, T12, T13, L1, L2, L3, L4, L5, L6, S1 and S2 for Groups 1 and 2, where T represents the thoracic segment of the spinal cord, L represents the lumbar segment of the spinal cord and S represents the sacral segment of the spinal cord.
(§8) The spinal cord was assessed using immunohistochemistry techniques across levels T12, T13, L1, L2, L3, L4, L5, L6, S and S2 for Groups 3 and 4, where T represents the thoracic segment of the spinal cord, L represents the lumbar segment of the spinal cord and S represents the sacral segment of the spinal cord. […]

[3] = system: mice with intrauterine LPS; assay: Facial Grimace Scale 24 hours after final LPS stimulation; assay type: in vivo, mouse (Balb/C); settings: intrauterine LPS vs saline, 24 hours after final LPS stimulation
Method: as §4
24 hours following the final LPS stimulation mice were subjected to assessment for the presence or absence of pain. This was assessed using the following tests:
Facial Grimace Scale: Photos of mice in their home cage will be taken, to score their facial Grimace and this was quantified and compared between groups. For further information see: http://www.nature.com/nmeth/journal/v7/n6/full/nmeth.1455.html.

[4] = system: spinal microglia (Iba1) in the dorsal horn of the spinal cord; assay: Spinal microglial activation (Iba1 immunofluorescence) after intrauterine LPS; assay type: in vivo, mouse (Balb/C); settings: 3 estrous cycles
Method: as §4, §5, §6, §7, §8

hNOD1 = biological target: T2, hNOD1 (Homo sapiens, UniProt Q9Y239); assay: Human TLR/NLR agonist screening, NF-κB SEAP reporter in HEK293 cells; assay type: cell-based; settings: agonist mode, Control+ = C12-iE-DAP 1 μg/mL
T2 construct: expressed in transfected cells; host or cells: HEK293
T2 sequence (Q9Y239 1-953): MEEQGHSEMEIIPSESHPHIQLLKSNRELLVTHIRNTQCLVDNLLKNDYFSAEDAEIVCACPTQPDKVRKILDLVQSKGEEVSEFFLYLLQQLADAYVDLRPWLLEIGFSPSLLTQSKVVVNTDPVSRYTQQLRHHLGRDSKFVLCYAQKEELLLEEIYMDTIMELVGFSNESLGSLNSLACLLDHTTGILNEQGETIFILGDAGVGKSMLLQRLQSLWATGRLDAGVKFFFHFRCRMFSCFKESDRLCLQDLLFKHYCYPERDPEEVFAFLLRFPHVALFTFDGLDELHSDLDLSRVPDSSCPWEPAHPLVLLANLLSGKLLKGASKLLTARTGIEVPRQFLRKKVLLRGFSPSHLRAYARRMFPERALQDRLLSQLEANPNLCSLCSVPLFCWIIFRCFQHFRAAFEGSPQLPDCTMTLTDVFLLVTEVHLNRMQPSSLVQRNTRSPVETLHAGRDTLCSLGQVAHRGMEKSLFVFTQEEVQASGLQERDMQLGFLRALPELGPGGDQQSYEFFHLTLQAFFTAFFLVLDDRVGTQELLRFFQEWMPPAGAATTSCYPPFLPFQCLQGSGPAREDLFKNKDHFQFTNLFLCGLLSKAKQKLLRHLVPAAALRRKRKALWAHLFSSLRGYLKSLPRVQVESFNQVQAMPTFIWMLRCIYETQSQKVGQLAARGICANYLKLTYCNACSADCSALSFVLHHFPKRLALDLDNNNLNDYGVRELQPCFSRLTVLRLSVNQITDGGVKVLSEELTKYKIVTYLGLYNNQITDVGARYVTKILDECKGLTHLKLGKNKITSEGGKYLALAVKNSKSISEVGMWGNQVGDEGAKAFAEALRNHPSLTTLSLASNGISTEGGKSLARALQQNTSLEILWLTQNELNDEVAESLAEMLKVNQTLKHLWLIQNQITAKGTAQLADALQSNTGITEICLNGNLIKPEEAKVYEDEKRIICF
Method: as §1
hNOD1: C12-iE-DAP at 1 μg/mL Antagonist: 100 ng/mL.
as §2, §3

hTLR5 = biological target: T3, hTLR5 (Homo sapiens, UniProt O60602); assay: as above; assay type: cell-based; settings: agonist mode, Control+ = S. typhimurium flagellin 100 ng/mL
T3 construct: expressed in transfected cells; host or cells: HEK293
T3 sequence (O60602 21-858): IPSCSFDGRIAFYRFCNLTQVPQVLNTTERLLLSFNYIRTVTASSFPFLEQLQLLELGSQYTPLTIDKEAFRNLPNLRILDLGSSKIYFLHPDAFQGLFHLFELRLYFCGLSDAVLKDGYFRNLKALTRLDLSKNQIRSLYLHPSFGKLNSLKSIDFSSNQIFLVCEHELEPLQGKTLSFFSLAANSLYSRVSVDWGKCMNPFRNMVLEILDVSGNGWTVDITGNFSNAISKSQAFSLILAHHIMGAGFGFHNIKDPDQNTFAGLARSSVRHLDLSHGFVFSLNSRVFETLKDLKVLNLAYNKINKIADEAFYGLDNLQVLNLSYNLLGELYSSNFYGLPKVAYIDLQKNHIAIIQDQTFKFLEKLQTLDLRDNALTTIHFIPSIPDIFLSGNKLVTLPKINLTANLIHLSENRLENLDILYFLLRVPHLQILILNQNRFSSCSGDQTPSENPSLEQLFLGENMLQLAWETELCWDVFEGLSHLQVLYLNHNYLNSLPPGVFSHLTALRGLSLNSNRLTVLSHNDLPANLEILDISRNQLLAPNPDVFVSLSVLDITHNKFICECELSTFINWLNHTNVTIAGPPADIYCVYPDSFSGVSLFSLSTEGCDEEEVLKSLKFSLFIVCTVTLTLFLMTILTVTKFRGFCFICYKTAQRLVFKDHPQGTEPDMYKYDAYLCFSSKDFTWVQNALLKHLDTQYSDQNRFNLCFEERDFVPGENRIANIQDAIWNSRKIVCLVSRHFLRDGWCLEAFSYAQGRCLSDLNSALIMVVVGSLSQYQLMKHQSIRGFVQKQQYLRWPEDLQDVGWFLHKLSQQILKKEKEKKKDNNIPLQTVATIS
Method: as §1
hTLR5: S. typhimurium flagellin at 100 ng/mL Antagonist: 50 ng/mL.
as §2, §3

[5] = intrauterine, mixed with LPS 100 μg/kg on first day of estrus and alone the subsequent day, amitriptyline 28 μg/kg, TAK-242 36 μg/kg, vs LPS

Question: With CpG ODN 2006 as the molecule, how does the “Fold induction (ratio of average induced value to average non-induced value)” value (hTLR9) read?
Answer: 18

Question: Which “activation of spinal glial cells (astrocytes and microglia)” value ([1]; intra-uterine LPS) does the source give for lipopolysaccharide [LPS] here?
Answer: induced activation of spinal astrocytes and microglia; also recorded: activate spinal glial cells

Question: What about the GFAP astrocyte staining ([2]; intrauterine LPS 100 μg/kg once per cycle, vs saline controls) of the same molecule?
Answer: increase in GFAP astrocyte staining through widespread levels of the spinal cord; also recorded: substantial increase in GFAP astrocyte staining

Question: What about the “presentation of Grimace behaviours” value [3] of the same molecule?
Answer: significant increase in the presentation of Grimace behaviours

Question: What about the Iba1 microglial staining ([4]; intrauterine LPS 100 μg/kg once per cycle, vs saline) of the same molecule?
Answer: localised increase in Iba1 microglial staining

Question: For `CCCCCCCCCCCC(=O)N[C@H](CCC(=O)NC(CCCC(N)C(=O)O)C(=O)O)C(=O)O` (some centres unmarked) [C12-iE-DAP], which “Fold induction (ratio of average induced value to average non-induced value)” value (hNOD1) is on record?
Answer: 20

Question: With `CCOC(=O)C1=CCCC[C@H]1S(=O)(=O)Nc1ccc(F)cc1Cl` [TAK-242] as the molecule, how does the “spinal glial activation induced by intrauterine LPS” value ([1]; intrauterine co-administration with LPS) read?
Answer: prevented; also recorded: block spinal glial activation

Question: What about the “dose effective at reducing spinal glial activation” value ([1]; mouse model, intrauterine administration) of the same molecule?
Answer: 0.036 mg/kg

Question: And the “astrocytic reactivity (GFAP staining), impact of intrauterine LPS at multiple levels of the spinal cord” value [2, 5]?
Answer: reduced astrocytic reactivity to below basal levels

Question: What about the “microglial reactivity (Iba1 staining), impact of intrauterine LPS at multiple levels of the spinal cord” value [4, 5] of the same molecule?
Answer: reduced microglia reactivity to basal levels

B1: S. typhimurium flagellin: hTLR5 control ligand (protein, UniProt P06179 2-495, looked up)
Flagellin: AQVINTNSLSLLTQNNLNKSQSALGTAIERLSSGLRINSAKDDAAGQAIANRFTANIKGLTQASRNANDGISIAQTTEGALNEINNNLQRVRELAVQSANSTNSQSDLDSIQAEITQRLNEIDRVSGQTQFNGVKVLAQDNTLTIQVGANDGETIDIDLKQINSQTLGLDTLNVQQKYKVSDTAATVTGYADTTIALDNSTFKASATGLGGTDQKIDGDLKFDDTTGKYYAKVTVTGGTGKDGYYEVSVDKTNGEVTLAGGATSPLTGGLPATATEDVKNVQVANADLTEAKAALTAAGVTGTASVVKMSYTDNNGKTIDGGLAVKVGDDYYSATQNKDGSISINTTKYTADDGTSKTALNKLGGADGKTEVVSIGGKTYAASKAEGHNFKAQPDLAEAAATTTENPLQKIDAALAQVDTLRSDLGAVQNRFNSAITNLGNTVNNLTSARSRIEDSDYATEVSNMSRAQILQQAGTSVLAQANQVPQNVLSLLR
Question: How did the “Fold induction (ratio of average induced value to average non-induced value)” value (hTLR5) turn out when B1 was run?
Answer: 18
